Results published in US20230406821A1, “STRIGOLACTONE DERIVATIVES” (Plant Response, Inc., priority 2017, published 2023).

System: Zea mays Dekalb Hybrid DKC68-26RIB
Assay: Stomatal conductance (LI-6400XT) of sprayed maize plants
Type: in vivo
Details: EC formulation plus 1% Crop Oil Concentrate, foliar spray 2 grams/acre, measured next morning (FIG. 7)
Source text: FIG. 7 is a boxplot representing the distribution of stomatal conductance (mmol/m^2/s) measurements taken via LI-6400XT on Zea mays plants treated with EC formulation blank and Crop Oil Concentrate (control; EC) or strigolactone molecule MBS-127, EC formulation blank and Crop Oil Concentrate (MBS-127+EC). […] Letters define significant classes with P<0.05. Points show observations falling outside of the whiskers and have been jittered along the x-axis to avoid overlap.
Water transport is closely intertwined with many vital plant processes, including photosynthesis, translocation, mineral nutrition, growth, and plays a critical role in defining the yield potential of a crop field (Azizian, A., & Sepaskhah, A. R. “Maize response to water, salinity and nitrogen levels: yield-water relation, water-use efficiency and water uptake reduction function,” International Journal of Plant Production (2014) Vol. 8(2), pp. 183-214). The compounds of formulas described herein induce increased leaf conductance in the leaves of intact Z. mays plants (FIG. 7).
In this experiment maize (Zea mays Dekalb Hybrid DKC68-26RIB) plants were grown in a greenhouse in one-gallon pots filled with Sunshine #2 soil-less growing mix. […] Leaves were acclimated within the LI6400XTR sensor head until gas exchange measurements had stabilized for conductance and then the conductance for that leaf determined.

COC(=O)/C=C/OC1C=C(C)C(=O)O1 (stereo not shown) [MBS-127, 3-(4-Methyl-5-oxo-2,5-dihydro-furan-2-yloxy)-acrylic acid methyl ester]
increase in stomatal conductance compared to the control group: 60%
